In patent publication US20230255195A1, “CRYOPRESERVATION METHOD FOR ORGAN-ON-A-CHIP” (MEPSGEN CO., LTD., priority 2020, published 2023):

Test system: three-dimensional organ-on-a-chip (hBMEC, pericytes, astrocytes in hydrogel)
Assay: TEER (transepithelial electrical resistance) of organ-on-a-chip after cryopreservation and thawing
Format: cell-based, human
Details: for TEER value after freezing compared with TEER value before freezing (normalized, before freezing set to 1): substance used as cryoprotectant in the cryopreservation method of Example 2, FIG. 9; for TEER value after freezing compared with TEER value before freezing (normalized): FIG. 10
Protocol: 10 μl of fibronectin was injected into each of the first channel and the second channel of the organ-on-a-chip of the present invention, and cultured in an incubator for 1 hour. Cell adhesion promoters of the first channel and the second channel were removed, and 10^7 cells/ml of a pericyte solution was injected into the second channel. After culturing for 3 hours in an incubator with the chip inverted, the culture solution in the second channel was removed. After injecting 10^7 cells/ml of a mixture in which astrocytes and hydrogel were mixed in a 1:9 volume ratio into the second channel, they were cultured in an incubator for 30 minutes. The culture solution was injected into the side channel and the first channel, and the well reservoir was filled with the culture solution and cultured for one day, and then 10^7 cells/ml of human brain microvascular endothelial cell (hBMEC) solution was injected into the first channel. After culturing for 1 hour in an incubator, the culture solution in the first channel was replaced and cultured for one day. The culture solution in the first channel and the side channel was replaced, and the side channel was plugged in, and then one side of the inlets of the first channel was connected to a syringe pump, and the other side was connected to a culture solution tank, and perfusion culture was performed at 4 dynes/cm^2 for 24 hours.
All of the culture solution in the well reservoir was removed from the organ-on-a-chip of Example 1 above, and the first channel and the side channel were washed with the culture solution. The side channel was washed twice with the cryopreservation solution (50% culture solution, 40% FBS, 10% DMSO) at 4 to 10° C. The culture solution in both inlets of the first channel was removed, and 30 μl of the cryopreservation solution was put into the inlet, and the cryopreservation solution was flowed by a difference in hydrostatic pressure (1 minute required). The preservation solution in the opposite inlet was removed, and 30 μl of the cryopreservation solution was additionally put into the inlet, and the cryopreservation solution was flowed by a difference in hydrostatic pressure (1 minute required). The chip was placed in a freezing container filled with isopropanol, and stored refrigerated for 15 minutes at 4° C., and then stored in a deep freezer (−80° C.).
The organ-on-a-chip of Example 2 above was taken out of the deep freezer and thawed for 10 minutes by immersing it in a constant temperature water bath (37° C.) so that the bottom was in contact, and then the culture solution in the side channel was replaced twice with a culture solution at 37° C. The preservation solution in both inlets of the first channel was removed, and 30 μl of the culture solution at 37° C. was put into the inlet, and the culture solution was flowed by a difference in hydrostatic pressure (1 minute required). The culture solution in the opposite inlet was removed, and 30 μl of the culture solution at 37° C. was additionally put into the inlet, and the culture solution was flowed by a difference in hydrostatic pressure (1 minute required). The well reservoir was filled with the culture solution at 37° C. and cultured for 24 hours or more.
The TEER value corresponds to a representative index for evaluating the cell-to-cell bonding force and the material permeability rate of the tissue and the like in the tissue function of the three-dimensional organ-on-a-chip.
The TEER value (ohm/cm^2) was calculated as follows, and the TEER value before freezing was set to 1 and compared and evaluated with the TEER value after freezing (normalized).

| SMILES | TEER value after freezing compared with TEER value before freezing (normalized, before freezing set to 1) | TEER value after freezing compared with TEER value before freezing (normalized) (DMSO content 3% in preservation solution) | TEER value after freezing compared with TEER value before freezing (normalized) (DMSO content 5% in preservation solution) | TEER value after freezing compared with TEER value before freezing (normalized) (DMSO content 10% in preservation solution) |
| --- | --- | --- | --- | --- |
| OCC(O)CO [glycerol] | remained the same | – | – | – |
| OCCO [EG, ethylene glycol] | lower than the TEER value before freezing | – | – | – |
| C[S+](C)[O-] [DMSO, dimethyl sulfoxide] | increased | remained the same | increased | increased |
